The values below come from patent US20070042046A1, “Methods for the treatment of cancer” (priority 2003, published 2007).

Data set [1] is described as follows: Animal mortality and survival after intra-tumoural injection in tumour-bearing nude mice. To be noted: for animal mortality rate: intratumoural. The class given is in vivo. The method, then:
The following protocol was adopted: • 1. Culture of human cells and implantation of the tumour cells as solid tumours in nude mice: The carcinoma cell-line was cultured in RPMI and Ham's F-12 media respectively with 10% fetal calf serum in a CO2 incubator and subcultured every two to three days until growing to a number enough for implantation in animals. The cells were then implanted as solid tumors in nude mice]. The cells were collected in HBSS (Hanks balanced salt solution). One hundred microliters of cell suspension in HBSS (5×10^6 cells) was injected subcutaneously into right gluteal region of nude mice (female, 6 to 9 week old nude mice with average body weight of 25 g, housed in pathogen-free conditions) using a 25-gauge needle. • 2. Animals groups: Animals were randomly grouped into control 1 (injected with peanut oil), control 2 (injected with porous silicon without drug), free chlorambucil (drug injected without porous silicon directly into tumour or injected via intraperitoneal route) and chlorambucil impregnated porous silicon groups. Each group included 16 to 20 animals. • 3. Injection of chlorambucil impregnated porous silicon in transplanted tumours: On day 14 after implantation of tumours (diameter of the tumour about lcm), the chlorambucil impregnated formulation was applied to the centre of the tumours. • 4. Tumour volumetrics: The sizes of implanted tumours in nude mice was estimated every 3 days. The largest and smallest diameters were measured by a vernier caliper and tumour volumes estimated according the formula: V=½ ab^2, where a and b are largest and smallest tumour diameters respectively, and V is the tumour volume in cm^3.
The effects of intra-tumoural administered chlorambucil loaded porous silicon on the growth of the tumour was studied and compared with control and systemic therapy groups. The body weight of the animals was estimated by subtracting the tumour volume (cm3) from the total body weight (g) every 3 days. The survival time of each experimental animal was recorded. […]

A further data set relates to HeLa cells. Briefly: Live/Dead cell assay. The following applies: 24 hours, chlorambucil 90 μg/ml.

Molecules are shown by their SMILES.

Experimental for HeLa cells: Cells with formulated drug were collected at 24 hours after incubation, placed into sterile plastic tubes and centrifuged. The supernatants were aspirated out and the cell pellets were washed gently with copious amount of PBS and centrifuged to remove any excipient. The cell pellet was dislodged gently and incubated with 300 μl of Live/dead cell assay reagent and incubated for 45 minutes on a rocker with gentle shaking (20 shakes per minute). At the end of incubation the cells were spun down, washed twice with PBS, reconstituted with 1 ml of PBS and transferred into a plate to capture the images of Live/Dead cells using fluorescent microscope.
The Live/Dead cell assay was performed on HeLa cell cultures grown on collagen coated plated and treated with various forms of porous silicon (AN^+/SE, loaded/unloaded, pre-formulated/formulated).
The procedure was performed on adherent cells after the floating cells were washed off. […] Therefore, percentage of live and dead cells was calculated from the adherent cells stuck to the bottom of the wells. Each sample was run in triplicate wells and one microscopic field image from each well was captured and the live and dead cells were counted to get an average % of cytotoxicity.

On to `O=C(O)CCCc1ccc(N(CCCl)CCCl)cc1` [chlorambucil, 4-[bis(2-chloroethyl)amino}benzenebutanoic acid], for which the animal mortality rate in data set [1] (720 ug) is recorded as 50%; in data set [1] (1500 ug (2×LD50)) it was 90%. Moreover, the LD50 in data set [1] (nude mice, free drug) came out at 720 µg. The “dead cell percentage (cytotoxicity)” value in the data set on HeLa cells was at least 95%.
